Like-named read-outs stand apart in the source and are kept apart here.
Key:
TNF-α = TNF-α activity inhibiting assay (LPS-stimulated peripheral blood, ELISA); type: cell-based, human; settings: compound 100 nM, diluted peripheral blood of healthy volunteers, LPS 10 ng/mL, 6 hours; for inhibition at 0.1 µM: Homo sapiens, read-out: Inhibitory Rate on TNF-α (%)
Description: TNF-α Activity Inhibiting Assay
Peripheral blood from healthy volunteers was collected and collected with EDTA anticoagulant tubes. After being diluted 5-fold with 1640 medium (Gibco, catalog number 11875-093, USA), the blood was added to 96-well cell culture plates (Costar, catalog number 3599, USA) and then treated with 10 μL solution of the compound of general formula (I) of the present invention in DMSO (Sigma, catalog number D2650, USA). The final concentration of the compound was 100 nM, and the final concentration of DMSO was 0.2%. After incubation for 60 minutes in an incubator at 37° C. under 5% CO2, 10 μL LPS (Sigma, catalog number L-2880, USA) was added to the reaction system, and the final concentration was 10 ng/mL. After further culturing for 6 hours in the incubator at 37° C. under 5% CO2, the supernatant was collected. The content of TNF-α was determined by ELISA (BD Biosciences, catalog number 555212, USA). Absorbance was detected at OD450 nm with a microplate reader, with OD 650 nm as reference. The control, a solution containing 0.2% DMSO medium, was as 0% inhibition. Raw data and standard curves were recorded. The four-parameter drug inhibition curve was plotted by XL-fit software and the inhibition rate of each compound was calculated, as shown in Table 1.

[1] = system: MM.1S cells (myeloma cells); test: Cell proliferation assay (MTS), MM.1S myeloma cells; type: cell-based; settings: 72 hours, read-out: IC50 values of MMIS Inhibition
Description: MM.1S cells (myeloma cells) (ATCC, catalog number CRL-2974) were seeded at 1.8×10^3 per well to a 96-well culture plate containing […] (Gibco, catalog number A10491-01), and were incubated in an incubator for 24 hours at 37° C. under 5% CO2. Compounds were prepared as 20 mM stock solutions with DMSO (Sigma, catalog number D2650), and were diluted with the medium to the desired concentration (the final concentration of DMSO was 0.5%) and then were added to each well, incubated in an incubator for 72 hours at 37° C. under 5% CO2. Then, 20 μL MTS (Promega, catalog number G3581) was added to each well, and further incubated for 1-4 hours in an incubator at 37° C. under 5% CO2. OD490 nm was detected with OD650 nm as reference. The control, a solution containing 0.5% DMSO medium, was as 0% inhibition. GraphPad Prism 5 was used, slope was allowed to change to make the dose-effect curve and IC50 values were calculated, shown in table 2 for details.

[2] = system: WSU-DLCL-2 cells (diffuse large B cell lymphoma cells); test: CTG cell proliferation assay, WSU-DLCL-2 cells; type: cell-based; settings: Homo sapiens, WSUDLCL2, WSU-DLCL-2 cells, 72-120 hours, CellTiter-Glo; read-out: IC50 Value of WSU-DLCL2 Inhibition
Description: (§1) CTG Cell Proliferation Assay
(§2) Rec-1 cells (Mantle cell lymphoma cells) (ATCC, catalog number CRL-3004), Namalwa.CSN/70 cells (Burkitt lymphoma cells) (DSMZ, catalog number ACC-70), and WSU-DLCL-2 cells (diffuse large B cell lymphoma cells) (DSMZ, catalog number ACC-575) were seeded at (5-15)×10^3 per well to a 96-well plate with transparent bottom and white wall (Corning, catalog number CLS3903) containing specific medium. The plate was placed in an incubator and incubated for 24 hours at 37° C. under 5% CO2. Compounds were prepared as 150 mM stock solutions with DMSO (Sigma, catalog number 276855), and were diluted with the medium to the desired concentration (the final concentration of DMSO was 0.2%) and then were added to each well, incubated in an incubator for 72-120 hours at 37° C. under 5% CO2. Then, 100 μl CellTiter-Glo® cell activity assay reagent (Promega, catalog number G7570) was added to each well. Mixing proceeded for 10 minutes on a shaker to induce cytolysis. The 96-well plate was placed at room temperature for 10 minutes to make the luminous signal stable. A white base film was pasted at the bottom of the culture plate. EnSpire was used to test the plate.

[3] = system: Rec-1 cells (Mantle cell lymphoma cells); test: CTG cell proliferation assay, Rec-1 cells; type: cell-based; settings: Homo sapiens, Rec1, 72-120 hours, CellTiter-Glo, read-out: IC50 Value of Rec-1 Inhibition
Description: as §1, §2

[4] = system: Namalwa.CSN/70 cells (Burkitt lymphoma cells); test: CTG cell proliferation assay, Namalwa.CSN/70 cells; type: cell-based; settings: 72-120 hours, CellTiter-Glo, read-out: IC50 Value of Namalwa.CSN/70 Inhibition
Description: as §1, §2

IC50 ([1]; Homo sapiens, MM1.S)	IC50 [2]	IC50 [3]	IC50 [4]	IC50 [1]	SMILES	inhibition at 0.1 µM (TNF-α)	Inhibitory Rate on TNF-α (%) (TNF-α)
< 0.3 µM	> 300 µM	< 0.1 µM	> 300 µM	–	Nc1cc(F)cc2c1CN([C@H]1CCC(=O)NC1=O)C2=O [Compound I-29]	> 50%	–
< 0.3 µM	0.401 to 300 µM	< 0.1 µM	0.1 to 0.4 µM	–	[2H][C@]1(N2Cc3c(NCc4ccc(OC)cc4F)cccc3C2=O)CCC(=O)NC1=O [Compound A356, (S)-3-deuterium-3-(4-((2-fluoro-4-methoxybenzyl)amino)-1-oxoisoindolin-2-yl)piperidine-2,6-dione]	≥ 50%	–
< 0.3 µM	0.401 to 300 µM	< 0.1 µM	> 300 µM	–	O=C1CCC(N2Cc3c(OCc4ccc(CN5CCOCC5)cc4F)cc(F)cc3C2=O)C(=O)N1 (centres unmarked) [Compound A407]	< 50%	–
< 0.3 µM	< 0.1 µM	< 0.1 µM	> 300 µM	–	[2H][C@]1(N2Cc3c(OCc4ccc(CN5CCOCC5)cc4F)cccc3C2=O)CCC(=O)NC1=O [Compound A406, (S)-3-deuterium-3-(4-((2-fluoro-4-(morpholinomethyl)benzyl)oxy)-1-oxoisoindolin-2-yl)piperidine-2,6-dione]	≥ 50%	–
< 0.3 µM	0.401 to 300 µM	0.1 to 0.4 µM	> 300 µM	–	[2H][C@]1(N2Cc3c(NCc4cccc(CN5CCOCC5)c4F)cccc3C2=O)CCC(=O)NC1=O [Compound A400, (S)-3-deuterium-3-(4-((2-fluoro-3-(morpholinomethyl)benzyl)amino)-1-oxoisoindolin-2-yl)piperidine-2,6-dione]	≥ 50%	–
< 0.3 µM	< 0.1 µM	< 0.1 µM	> 300 µM	–	O=C1CCC(N2Cc3c(OCc4ccc(CN5CCOCC5)cc4F)cccc3C2=O)C(=O)N1 (centres unmarked) [Compound A386, 3-(4-((2-fluoro-4-(morpholinomethyl)benzyl)oxy)-1-oxoisoindolin-2-yl)piperidine-2,6-dione]	≥ 50%	–
< 0.3 µM	< 0.1 µM	< 0.1 µM	> 300 µM	–	O=C1CCC(N2Cc3c(NCc4ccc(CN5CCOCC5)cc4F)cccc3C2=O)C(=O)N1 (centres unmarked) [Compound A382]	≥ 50%	–
≥ 0.3 µM	> 300 µM	0.1 to 0.4 µM	> 300 µM	–	Nc1cccc2c1CN(C1CCC(=O)NC1=O)C2=O (centres unmarked) [Lenalidomide, 3-(4-amino-1,3-dihydro-1-oxo-2H-isoindole-2-yl)-piperidine-2,6-dione, reference compound]	< 50%	–
< 0.3 µM	> 300 µM	< 0.1 µM	> 300 µM	–	Nc1cc(F)cc2c1CN([C@@H]1CCC(=O)NC1=O)C2=O [Compound I-30]	–	–
< 0.3 µM	–	–	–	–	O=C1CCC(N2Cc3c(OCc4ccc(CN5CCOCC5)cc4)cc(F)cc3C2=O)C(=O)N1 (centres unmarked) [Compound A327, 3-(6-fluoro-4-((4-(morpholinomethyl)benzyl)oxy)-1-oxoisoindolin-2-yl)-piperidine-2,6-dione]	< 50%	–
≥ 0.3 µM	–	–	–	–	COc1ccc(CNc2cc(F)cc3c2CN(C2CCC(=O)NC2=O)C3=O)c(F)c1 (centres unmarked) [Compound A319, 3-(6-fluoro-4-((2-fluoro-4-methoxybenzyl)amino)-1-oxoisoindolin-2-yl)-piperidine-2,6-dione]	< 50%	–
< 0.3 µM	–	–	–	–	O=C1CCC(N2Cc3c(NCc4cc(OCCCN5CCOCC5)ccc4F)cccc3C2=O)C(=O)N1 (centres unmarked) [Compound A369, 3-(4-((2-fluoro-5-(3-morpholinopropoxy)benzyl)amino)-1-oxoisoindolin-2-yl)piperidine-2,6-dione]	≥ 50%	–
≥ 0.3 µM	–	–	–	–	O=C1CCC(N2Cc3c(NCc4cc(OCCO)ccc4F)cccc3C2=O)C(=O)N1 (centres unmarked) [Compound A375, 3-(4-((2-fluoro-5-(2-hydroxyethoxy)benzyl)amino)-1-oxoisoindolin-2-yl)piperidine-2,6-dione]	< 50%	–
< 0.3 µM	–	–	–	–	COc1ccc(F)c(COc2cccc3c2CN(C2CCC(=O)NC2=O)C3=O)c1 (centres unmarked) [Compound A331, 3-(4-((2-fluoro-5-methoxybenzyl)oxy)-1-oxoisoindolin-2-yl)piperidine-2,6-dione]	≥ 50%	–
< 0.3 µM	–	–	–	–	Cc1ccc(CNc2cccc3c2CN(C2CCC(=O)NC2=O)C3=O)cc1F (centres unmarked) [Compound A353, 3-(4-((3-fluoro-4-methylbenzyl)amino)-1-oxoisoindolin-2-yl)piperidine-2,6-dione]	< 50%	–
< 0.3 µM	> 300 µM	< 0.1 µM	> 300 µM	–	COc1ccc(F)c(CNc2cccc3c2CN(C2CCC(=O)NC2=O)C3=O)c1 (centres unmarked) [Compound A195, 3-(4-((2-fluoro-5-methoxybenzyl)amino)-1-oxoisoindolin-2-yl)piperidine-2,6-dione]	–	–
≥ 0.3 µM	–	–	–	–	COc1cc(CNc2cccc3c2CN(C2CCC(=O)NC2=O)C3=O)cc(OC)c1 (centres unmarked) [Compound A355, 3-(4-((3,5-dimethoxybenzyl)amino)-1-oxoisoindolin-2-yl)piperidine-2,6-dione]	< 50%	–
< 0.3 µM	–	–	–	–	N#Cc1cccc(CNc2cccc3c2CN(C2CCC(=O)NC2=O)C3=O)c1F (centres unmarked) [Compound A360, 3-(((2-(2,6-dioxopiperidin-3-yl)-1-oxoisoindolin-4-yl)amino)methyl)-2-fluorobenzonitrile]	< 50%	–
–	–	–	–	< 0.3 µM	[2H]C1(N2Cc3c(NCc4ccc(CN5CCOCC5)cc4F)cccc3C2=O)CCC(=O)NC1=O (centres unmarked) [Compound A426]	–	≥50%
–	–	–	–	< 0.3 µM	[2H]C1(N2Cc3c(OCc4ccc(CN5CCOCC5)cc4F)cccc3C2=O)CCC(=O)NC1=O (centres unmarked) [Compound A425, 3-deuterium-3-(4-((2-fluoro-5-(morpholinomethyl)benzyl)oxy)-1-oxoisoindolin-2-yl)piperidine-2,6-dione]	–	≥50%
< 0.3 µM	–	–	–	–	O=C1CCC(N2Cc3c(NCc4cc(O)ccc4F)cccc3C2=O)C(=O)N1 (centres unmarked) [Compound A364, 3-(4-((2-fluoro-5-hydroxybenzyl)amino)-1-oxoisoindolin-2-yl)piperidine-2,6-dione]	< 50%	–
< 0.3 µM	–	–	–	–	[2H][C@]1(N2Cc3c(OCc4ccc(OC)cc4F)cccc3C2=O)CCC(=O)NC1=O [Compound A393, (S)-3-deuterium-3-(4-((2-fluoro-4-methoxybenzyl)oxy)-1-oxoisoindolin-2-yl)piperidine-2,6-dione]	< 50%	–
< 0.3 µM	–	–	–	–	CNc1ccc(F)c(CNc2cccc3c2CN(C2CCC(=O)NC2=O)C3=O)c1 (centres unmarked) [Compound A387, 3-(4-((2-fluoro-5-(methylamino)benzyl)amino)-1-oxoisoindolin-2-yl)piperidine-2,6-dione]	≥ 50%	–
